Assay results reported in US8222008B2, “Methods and compositions for treating cancer” (The Administrators of The Tulane Educational Fund, priority 2003, dated 2012).

Tested on: normal fibroblasts
Test: Apoptosis after lysosomal cystine loading, CaspACE assay (FIG. 1)
Assay type: cell-based, human
Settings: 0.5 mM CDME 1 hour pretreatment, then TNF-a or UV, 16 hours in CDME-containing medium; control rate 7.2+/−1.3%
Method: 1. The CaspACE Assay • CaspACE (Promega) is an FITC-conjugated cell-permeable form of the pan-caspase inhibitor zVAD-Fmk, which binds to activated caspase(s). Cells were incubated in FITC-VAD-Fmk-containing medium (10 μM for 30 minutes at 37° C.), washed, and then fixed in 10% buffered formalin (30 minutes at room temperature) before analysis. The cells were visually enumerated by fluorescence microscopy, scoring a minimum of five fields (250 to 300 cells) for fluorescence in triplicate followed by counting all cells in the same field by light microscopy, with a minimum of 750 cells scored per condition. The apoptosis rate is the total number of cells that fluoresce divided by the total cells in the field.
Normal fibroblast lysosomes were loaded with cystine by the addition of 0.5 mM cystine dimethylester (CDME, Sigma) to normal culture medium for 1 hour before treatment (Pisoni, R L, et al, 1992 Somat. Cell. Mol. Genet., 18:1-6). The cells were treated with apoptotic triggers, leaving CDME in the medium to prevent lysosomal cystine loss, and then analyzed for apoptosis.
The lysosomal cystine content of normal fibroblasts was also altered as follows. Normal fibroblasts also at passage 7-13 were pretreated with 0.5 mM CDME for 1 hour, increasing the cystine content of their lysosomes to the cystinotic range (0.47 to 1.95 nmol of cystine per mg of protein). […]

Structure (SMILES): COC(=O)[C@@H](N)CSSC[C@H](N)C(=O)OC [CDME, cystine dimethyl ester]
- apoptotic rate after exposure to CDME: 18.7+/−5.4%
